Assay results as given in patent US9604988B2, “Agent for treating or inhibiting recurrence of acute myeloid leukemia” (RIKEN, priority 2012, dated 2017).

Experiments:
HCK = HCK (Homo sapiens, UniProt P08631); test: HCK kinase inhibition; assay type: biochemical
hERG = hERG (Homo sapiens, UniProt Q12809); test: hERG inhibition (automated patch-clamp); assay type: cell-based
FLT3-ITD = molecular target: T1, FLT3-ITD (Homo sapiens, UniProt P36888, ITD); test: FLT3-ITD kinase inhibition; assay type: biochemical
T1 sequence (P36888 27-993): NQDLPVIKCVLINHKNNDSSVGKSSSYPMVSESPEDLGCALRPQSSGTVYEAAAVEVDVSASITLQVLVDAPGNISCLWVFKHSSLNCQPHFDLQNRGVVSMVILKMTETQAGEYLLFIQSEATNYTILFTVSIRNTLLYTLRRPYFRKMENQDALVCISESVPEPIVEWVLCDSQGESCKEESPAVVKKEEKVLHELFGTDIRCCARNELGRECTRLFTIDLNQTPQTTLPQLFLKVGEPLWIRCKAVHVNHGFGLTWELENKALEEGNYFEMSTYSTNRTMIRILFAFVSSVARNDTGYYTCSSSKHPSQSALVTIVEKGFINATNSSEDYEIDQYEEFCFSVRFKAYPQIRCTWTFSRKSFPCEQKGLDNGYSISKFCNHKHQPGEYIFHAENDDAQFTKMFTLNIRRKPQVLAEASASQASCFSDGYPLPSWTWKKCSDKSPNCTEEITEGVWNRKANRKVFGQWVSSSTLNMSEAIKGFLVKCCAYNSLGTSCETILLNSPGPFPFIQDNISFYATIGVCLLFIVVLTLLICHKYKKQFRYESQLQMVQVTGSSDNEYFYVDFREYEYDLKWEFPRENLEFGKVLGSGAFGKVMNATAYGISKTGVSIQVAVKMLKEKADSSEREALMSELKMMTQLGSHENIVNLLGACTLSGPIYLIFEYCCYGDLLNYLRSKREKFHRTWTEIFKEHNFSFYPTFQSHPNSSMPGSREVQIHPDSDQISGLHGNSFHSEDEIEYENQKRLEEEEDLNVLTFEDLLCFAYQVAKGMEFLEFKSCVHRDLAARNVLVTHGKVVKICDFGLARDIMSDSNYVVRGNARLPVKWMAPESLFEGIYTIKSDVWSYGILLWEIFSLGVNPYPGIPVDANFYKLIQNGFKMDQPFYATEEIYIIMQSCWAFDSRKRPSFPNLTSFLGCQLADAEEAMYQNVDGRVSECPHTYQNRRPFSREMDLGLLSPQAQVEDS

Sequence of hERG (Q12809 whole entry): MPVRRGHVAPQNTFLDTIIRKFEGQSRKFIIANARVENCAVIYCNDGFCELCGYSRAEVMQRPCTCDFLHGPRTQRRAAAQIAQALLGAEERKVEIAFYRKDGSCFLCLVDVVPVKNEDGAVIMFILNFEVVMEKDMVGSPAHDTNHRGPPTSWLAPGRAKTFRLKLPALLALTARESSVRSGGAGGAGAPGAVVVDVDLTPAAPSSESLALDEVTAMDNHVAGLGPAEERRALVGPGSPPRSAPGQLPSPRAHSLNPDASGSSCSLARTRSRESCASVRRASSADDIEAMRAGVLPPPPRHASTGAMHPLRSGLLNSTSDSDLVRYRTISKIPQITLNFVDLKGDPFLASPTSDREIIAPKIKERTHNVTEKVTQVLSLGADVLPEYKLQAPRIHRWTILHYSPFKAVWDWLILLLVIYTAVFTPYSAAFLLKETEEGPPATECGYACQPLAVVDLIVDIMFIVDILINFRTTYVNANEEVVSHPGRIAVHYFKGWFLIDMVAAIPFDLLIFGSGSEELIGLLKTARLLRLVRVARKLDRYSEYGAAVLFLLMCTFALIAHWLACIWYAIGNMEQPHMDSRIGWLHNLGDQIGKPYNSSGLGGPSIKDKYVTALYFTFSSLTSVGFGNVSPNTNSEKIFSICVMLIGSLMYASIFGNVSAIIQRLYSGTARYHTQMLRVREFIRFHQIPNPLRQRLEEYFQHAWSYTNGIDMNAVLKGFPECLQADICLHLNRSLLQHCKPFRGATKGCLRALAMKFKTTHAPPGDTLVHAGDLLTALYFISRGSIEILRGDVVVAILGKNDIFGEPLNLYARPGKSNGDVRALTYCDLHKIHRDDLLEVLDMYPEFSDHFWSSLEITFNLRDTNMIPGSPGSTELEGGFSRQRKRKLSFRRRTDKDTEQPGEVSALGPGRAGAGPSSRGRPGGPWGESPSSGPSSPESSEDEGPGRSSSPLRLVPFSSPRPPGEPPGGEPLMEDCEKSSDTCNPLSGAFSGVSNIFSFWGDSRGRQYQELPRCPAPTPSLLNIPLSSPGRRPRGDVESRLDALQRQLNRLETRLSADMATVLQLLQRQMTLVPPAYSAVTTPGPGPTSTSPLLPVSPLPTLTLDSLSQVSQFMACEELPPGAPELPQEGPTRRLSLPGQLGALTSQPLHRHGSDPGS
Sequence of HCK (P08631 whole entry): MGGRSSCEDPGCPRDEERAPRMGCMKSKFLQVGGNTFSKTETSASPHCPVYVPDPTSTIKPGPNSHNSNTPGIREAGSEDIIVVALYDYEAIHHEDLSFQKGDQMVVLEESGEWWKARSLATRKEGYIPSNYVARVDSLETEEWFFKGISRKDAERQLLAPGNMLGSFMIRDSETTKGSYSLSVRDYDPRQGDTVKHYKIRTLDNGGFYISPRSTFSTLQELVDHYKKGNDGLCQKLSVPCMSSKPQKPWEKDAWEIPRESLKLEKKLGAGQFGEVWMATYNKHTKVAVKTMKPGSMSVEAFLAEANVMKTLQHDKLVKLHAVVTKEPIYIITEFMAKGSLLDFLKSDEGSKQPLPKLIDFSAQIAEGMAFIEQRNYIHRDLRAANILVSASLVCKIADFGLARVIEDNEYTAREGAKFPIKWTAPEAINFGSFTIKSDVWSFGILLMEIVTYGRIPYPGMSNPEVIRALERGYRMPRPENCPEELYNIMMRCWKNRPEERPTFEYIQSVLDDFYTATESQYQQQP

Row | IC50 (HCK) | IC50 (FLT3-ITD) | Structure (SMILES) | inhibition at 10 µM (hERG)
1 | 1.6 nM | 609 nM | COc1cc(-c2cn([C@H]3CC[C@H](N4CCN(C)CC4)CC3)c3ncnc(N)c23)ccc1NC(=O)c1cc2ccccc2n1C [Example 27, N-(4-(4-amino-7-((trans)-4-(4-methylpiperazin-1-yl)cyclohexyl)-7H-pyrrolo[2,3-d]pyrimidin-5-yl)-2-methoxyphenyl)-1-methyl-1H-indole-2-carboxamide] | 39.3%
2 | 1.8 nM | 1340 nM | COc1cc(-c2nn([C@H]3CC[C@H](N4CCn5c(C)nnc5C4)CC3)c3ncnc(N)c23)ccc1NC(=O)c1cc2ccccc2n1C [Example 29, N-(4-(4-amino-1-((trans)-4-(3-methyl-5,6-dihydro[1,2,4]triazolo[4,3-a]pyrazin-7(8H)-yl)cyclohexyl)-1H-pyrazolo[3,4-d]pyrimidin-3-yl)-2-methoxyphenyl)-1-methyl-1H-indole-2-carboxamide] | 17.1%
3 | 7.7 nM | 3330 nM | COc1cc(-c2cn([C@H]3CC[C@@H](N4CCn5nc(C)cc5C4)CC3)c3ncnc(N)c23)ccc1NC(=O)c1cc2ccccc2n1C [Example 37, N-(4-(4-amino-7-((cis)-4-(2-methyl-6,7-dihydropyrazolo[1,5-a]pyrazin-5(4H)-yl)cyclohexyl)-7H-pyrrolo[2,3-d]pyrimidin-5-yl)-2-methoxyphenyl)-1-methyl-1H-indole-2-carboxamide] | –
4 | 2.8 nM | 6580 nM | COc1cc(-c2cn([C@H]3CC[C@@H](N4CCn5nccc5C4)CC3)c3ncnc(N)c23)ccc1NC(=O)c1cc2ccccc2n1C [Example 38, N-(4-(4-amino-7-((cis)-4-(6,7-dihydropyrazolo[1,5-a]pyrazin-5(4H)-yl)cyclohexyl)-7H-pyrrolo[2,3-d]pyrimidin-5-yl)-2-methoxyphenyl)-1-methyl-1H-indole-2-carboxamide] | –
5 | 4 nM | 4620 nM | COc1cc(-c2cn([C@H]3CC[C@H](N4CCn5c(C)cnc5C4)CC3)c3ncnc(N)c23)ccc1NC(=O)c1cc2ccccc2n1C [Example 39, N-(4-(4-amino-7-((trans)-4-(3-methyl-5,6-dihydroimidazo[1,2-a]pyrazin-7(8H)-yl)cyclohexyl)-7H-pyrrolo[2,3-d]pyrimidin-5-yl)-2-methoxyphenyl)-1-methyl-1H-indole-2-carboxamide] | –
6 | 4 nM | 16 nM | COCCN1CCN([C@H]2CC[C@H](n3cc(-c4ccc(Oc5ccccc5)cc4)c4c(N)ncnc43)CC2)CC1 [Example 40, 7-((trans)-4-(4-(2-Methoxyethyl)pyrazin-1-yl)cyclohexyl)-5-(4-phenoxyphenyl)-7H-pyrrolo[2,3-d]pyrimidin-4-amine] | 96%
7 | 6.5 nM | 12 nM | Nc1ncnc2c1c(-c1ccc(Oc3ccccc3)cc1)cn2[C@H]1CC[C@@H](NCc2ccccn2)CC1 [Example 47, 5-(4-Phenoxyphenyl)-7-((cis)-4-((pyridin-2-ylmethyl)amino)cyclohexyl)-7H-pyrrolo[2,3-d]pyrimidin-4-amine] | 99%
8 | 0.53 nM | 23 nM | Cn1nccc1CN[C@H]1CC[C@@H](n2cc(-c3ccc(Oc4ccccc4)cc3)c3c(N)ncnc32)CC1 [Example 49, 7-((cis)-4-(((1-Methyl-1H-pyrazol-5-yl)methyl)amino)cyclohexyl)-5-(4-phenoxyphenyl)-7H-pyrrolo[2,3-d]pyrimidin-4-amine] | 99%
9 | 9.6 nM | 39 nM | Cn1nccc1CN[C@H]1CC[C@H](n2cc(-c3ccc(Oc4ccccc4)cc3)c3c(N)ncnc32)CC1 [Example 50, 7-((trans)-4-(((1-Methyl-1H-pyrazol-5-yl)methyl)amino)cyclohexyl)-5-(4-phenoxyphenyl)-7H-pyrrolo[2,3-d]pyrimidin-4-amine] | 97%
10 | 8 nM | 34 nM | Cn1ccc(CN[C@H]2CC[C@@H](n3cc(-c4ccc(Oc5ccccc5)cc4)c4c(N)ncnc43)CC2)n1 [Example 51, 7-((cis)-4-(((1-Methyl-1H-pyrazol-3-yl)methyl)amino)cyclohexyl)-5-(4-phenoxyphenyl)-7H-pyrrolo[2,3-d]pyrimidin-4-amine] | 100%
11 | 23 nM | 43 nM | Nc1ncnc2c1c(-c1ccc(Oc3ccccc3)cc1)cn2[C@H]1CC[C@H](N2CCn3c(nnc3C(F)(F)F)C2)CC1 [Example 58, 5-(4-Phenoxyphenyl)-7-((trans)-4-(3-(trifluoromethyl)-5,6-dihydro[1,2,4]triazolo[4,3-a]pyrazin-7(8H)-yl)cyclohexyl)-7H-pyrrolo[2,3-d]pyrimidin-4-amine] | –
12 | 3 nM | 55 nM | CN1CCN([C@H]2CC[C@H](n3nc(-c4ccc(Oc5ccccc5)cc4)c4c(N)ncnc43)CC2)CC1 [Example 59, 1-((trans)-4-(4-Methylpiperazin-1-yl)cyclohexyl)-3-(4-phenoxyphenyl)-1H-pyrazolo[3,4-d]pyrimidin-4-amine] | –

The remaining lines, values behind:

Row | Structure (SMILES) | IC50 (HCK) | IC50 (FLT3-ITD) | inhibition at 10 µM (hERG)
13 | CN1C2CCC1CN([C@H]1CC[C@H](n3nc(-c4ccc(NC(=O)c5ccccn5)cc4)c4c(N)ncnc43)CC1)C2 [Example 21, N-(4-(4-amino-1-((1r,4r)-4-(8-methyl-3,8-diazabicyclo[3.2.1]octan-3-yl)cyclohexyl)-1H-pyrazolo[3,4-d]pyrimidin-3-yl)phenyl)picolinamide] | 4.7 nM | 1180 nM | 48%
14 | Nc1ncnc2c1c(-c1ccc(Oc3ccccc3)cc1)nn2[C@H]1CC[C@H](NC(=O)c2cccnc2)CC1 [Example 22, N-((trans)-4-(4-amino-3-(4-phenoxyphenyl)-1H-pyrazolo[3,4-d]pyrimidin-1-yl)cyclohexyl)nicotinamide] | 20 nM | 190 nM | 50%
15 | CN1C2CCC1CN([C@H]1CC[C@H](n3nc(-c4ccc(NC(=O)c5cc6ccccc6n5C)cc4)c4c(N)ncnc43)CC1)C2 [Example 24, N-(4-(4-amino-1-((1r,4r)-4-(8-methyl-3,8-diazabicyclo[3.2.1]octan-3-yl)cyclohexyl)-1H-pyrazolo[3,4-d]pyrimidin-3-yl)phenyl)-1-methyl-1H-indole-2-carboxamide] | 9.73 nM | 3330 nM | 64%
16 | CN1C2CCC1CC(N1CCC(n3nc(-c4ccc(NC(=O)c5cc6ccccc6n5C)cc4)c4c(N)ncnc43)CC1)C2 (stereo not drawn) [Example 25, N-(4-(4-amino-1-(1-(8-methyl-8-azabicyclo[3.2.1]octan-3-yl)piperidin-4-yl)-1H-pyrazolo[3,4-d]pyrimidin-3-yl)phenyl)-1-methyl-1H-indole-2-carboxamide] | 2.05 nM | 2780 nM | 42%
17 | Nc1ncnc2c1c(-c1ccc(Oc3ccccc3)cc1)cn2[C@H]1CC[C@H](N2CCN(CCO)CC2)CC1 [Example 41, 2-(4-((trans)-4-(4-Amino-5-(4-phenoxyphenyl)-7H-pyrrolo[2,3-d]pyrimidin-7-yl)cyclohexyl)piperazin-1-yl)ethan-1-ol] | – | 21 nM | 93%
18 | CC(C)N1CCN([C@H]2CC[C@H](n3cc(-c4ccc(Oc5ccccc5)cc4)c4c(N)ncnc43)CC2)CC1 [Example 42, 7-((trans)-4-(4-Isopropylpiperazin-1-yl)cyclohexyl)-5-(4-phenoxyphenyl)-7H-pyrrolo[2,3-d]pyrimidin-4-amine] | – | 22 nM | 88%
19 | Nc1ncnc2c1c(-c1ccc(Oc3ccccc3)cc1)cn2[C@H]1CC[C@H](NCc2ccncc2)CC1 [Example 44, 5-(4-phenoxyphenyl)-7-((trans)-4-((pyridin-4-ylmethyl)amino)cyclohexyl)-7H-pyrrolo[2,3-d]pyrimidin-4-amine] | – | 15 nM | 93%
20 | CN1C2CCC1CN([C@H]1CC[C@@H](n3nc(-c4ccc(Oc5ccccc5)cc4)c4c(N)ncnc43)CC1)C2 [Example 52, 1-((1s,4s)-4-(8-Methyl-3,8-diazabicyclo[3.2.1]octan-3-yl)cyclohexyl)-3-(4-phenoxyphenyl)-1H-pyrazolo[3,4-d]pyrimidin-4-amine] | 14.5 nM | 27 nM | 99%
21 | Nc1ncnc2c1c(-c1ccc(Oc3ccccc3)cc1)cn2[C@H]1CC[C@@H](N[C@H]2CCNC2=O)CC1 [Example 53, (S)-3-(((cis)-4-(4-amino-5-(4-phenoxyphenyl)-7H-pyrrolo[2,3-d]pyrimidin-7-yl)cyclohexyl)amino)pyrrolidin-2-one] | – | 30 nM | 97%
